According to US6783949B1, “Processes for determining whether a test substance contains lipases or lipase inhibitors” (Aventis Pharma Deutschland GmbH, priority 1999, dated 2004):

Target: T1, HSL (Rattus norvegicus, UniProt P15304)
T1 construct: The partially purified HSL can be stored at −70° C. for 4 to 6 weeks; from tissue; host or cells: rat epididymal fat cells (male Wistar rats)
T1 sequence (P15304 1-768 isoform P15304-2): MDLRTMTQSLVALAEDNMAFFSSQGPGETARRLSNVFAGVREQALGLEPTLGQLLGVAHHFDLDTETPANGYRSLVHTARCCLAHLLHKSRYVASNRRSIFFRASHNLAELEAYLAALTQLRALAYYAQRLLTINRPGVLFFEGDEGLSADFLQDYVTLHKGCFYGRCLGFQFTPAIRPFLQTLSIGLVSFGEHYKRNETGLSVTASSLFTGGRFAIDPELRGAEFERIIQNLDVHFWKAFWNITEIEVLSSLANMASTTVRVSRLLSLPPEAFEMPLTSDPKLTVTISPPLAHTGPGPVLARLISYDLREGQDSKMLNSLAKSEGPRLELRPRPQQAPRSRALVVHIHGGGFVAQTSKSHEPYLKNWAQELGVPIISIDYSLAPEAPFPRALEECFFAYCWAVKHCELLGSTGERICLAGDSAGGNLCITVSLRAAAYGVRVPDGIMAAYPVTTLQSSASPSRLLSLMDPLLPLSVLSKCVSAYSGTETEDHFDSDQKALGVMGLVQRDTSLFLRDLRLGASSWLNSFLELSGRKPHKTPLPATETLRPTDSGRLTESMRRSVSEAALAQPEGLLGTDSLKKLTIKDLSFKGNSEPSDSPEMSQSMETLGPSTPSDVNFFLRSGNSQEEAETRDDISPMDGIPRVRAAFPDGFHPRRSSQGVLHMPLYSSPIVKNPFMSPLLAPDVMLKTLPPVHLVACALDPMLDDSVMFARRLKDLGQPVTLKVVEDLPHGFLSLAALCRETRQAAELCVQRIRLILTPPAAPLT
Test: Direct NAG assay (released NBD-FA, TLC/fluorimetry)
Format: biochemical
Settings: for Absorption change, Released NBD-FA, 550 nm: 60 min, NAG 0.05 mg/ml
Protocol: Isolated rat fat cells are obtained from epididymal fatty tissue from untreated male rats (Wistar, 220-250 g) by collagenase treatment according to published processes. The fat cells from 10 rats are washed three times by flotation with 50 ml each of homogenization buffer ([…], pH 7.4, 0.25 M sucrose, 1 mM ethylenediamine-N,N,N′,N′-tetraacetic acid (EDTA), 1 mM dithiothreitol (DTT), 10 μg/ml of leupeptin, 10 μg/ml of antipain, 20 μg/ml of pepstatin) and finally taken up in 10 ml of homogenization buffer. The fat cells are homogenized in a Teflon-in-glass homogenizer (Braun-Melsungen) by 10 strokes at 1500 rpm and 15° C. The homogenizate is centrifuged (Sorvall SM24 tubes, 5000 rpm, 10 min, 4° C.). The […] between the overlying fatty layer and the pellet is removed and the centrifugation is repeated. The […] resulting from this is centrifuged again (Sorvall SM24 tubes, 20,000 rpm, 45 min, 4° C.). […] After incubation for 60 min at 4° C. (shake at intervals of 15 min), the batch is centrifuged (Sorvall SM24 tubes, 3000 rpm, 10 min, 4° C.). The supernatant is brought to pH 5.2 by addition of glacial acetic acid and incubated at 4° C. for 30 min. The precipitates are collected by centrifugation (Sorvall SS34, 12,000 rpm, 10 min, 4° C.) and suspended in 2.5 ml of 20 mM TRIS/HCl, pH 7.0, 1 mM EDTA, 65 mM NaCl, 13% sucrose, 1 mM DTT, 10 μg/ml of leupeptin/pepstatin/antipain. The suspension is dialyzed overnight at 4° C. against 25 mM TRIS/HCl, pH 7.4, 50% glycerol, 1 mM DTT, and 10 μg/ml of leupeptin, pepstatin, and antipain and then applied to a hydroxylapatite column (0.1 g per 1 ml of suspension, equilibrated with 10 mM potassium phosphate, pH 7.0, 30% glycerol, 1 mM DTT). The column is washed with four volumes of equilibration buffer at a flow rate of 20 to 30 ml/h. The HSL is eluted with a volume of equilibration buffer which contains 0.5 M potassium phosphate, then dialyzed (see above) and concentrated 5 to 10 times by ultrafiltration (Amicon Diaflo PM 10 filter) at 4° C. The partially purified HSL can be stored at −70° C. for 4 to 6 weeks.
6 mg of phosphatidylcholine and 6 mg of phosphatidylinositol are dissolved in 1 ml of chloroform each. 10 mg of NAG are dissolved in 1 ml of chloroform. Two parts of phosphatidylinositol solution (e.g., 83.5 μl) and one part of phosphatidylcholine solution (e.g., 41.5 μl) and 100 μl of NAG solution are pipetted together into plastic scintillation containers (final concentration in the test: 0.0375 mg of phospholipid/ml; 0.05 mg/NAG/ml). The chloroform (225 μl total volume) is completely removed by overblowing with a stream of N2. The dried substrate can be stored at 4° C. for up to three days. For the preparation of the phospholipid vesicles/micelles having intercalated NAG (on the test day), the dried substrate is taken up in 20 ml of assay buffer (25 mM TRIS/HCl, pH 7.4; 150 mM NaCl) and two ultrasonic treatments with an ultrasonic probe (Branson Sonifier type 11, standard microtip): 1st treatment setting 2, 2×1 min, in between in each case 1 min on ice; 2nd treatment setting 4, 2×1 min, in between in each case 1 min on ice. During this procedure, the color of the substrate solution changed from yellow (extinction maximum 481 nm) to red (extinction maximum 550 nm) due to intercalation of NAG between the phospholipid molecules of the vesicles/micelles. Before use as a substrate (within the next 2 h), the solution is additionally incubated on ice for 15 min.
Altematively to the measurement of the extinction change of the substrate solution, the products of the HSL reaction are investigated by phase separation/thin-layer chromatography. For this, the incubation batch (200 μl total volume, see indirect NAG assay) is mixed in 2 ml Eppendorf vessels with 1.3 ml of methanol/chloroform/heptane (10:9:7) and then with 0.4 ml of 0.1 M NaOH. After intensive mixing (10 sec), the phase separation is initiated by centrifugation (800×g, 20 min, room temperature). […]

SMILES	IC50 [nM]	Absorption change, Released NBD-FA, 550 nm (HSL 1 μg) [arb. units]	Absorption change, Released NBD-FA, 550 nm (HSL 2 μg) [arb. units]	Absorption change, Released NBD-FA, 550 nm (HSL 5 μg) [arb. units]	Absorption change, Released NBD-FA, 550 nm (HSL 7.5 μg) [arb. units]	Absorption change, Released NBD-FA, 550 nm (HSL 10 μg) [arb. units]	Absorption change, Released NBD-FA, 550 nm (HSL 15 μg) [arb. units]	Absorption change, Released NBD-FA, 550 nm (HSL 20 μg) [arb. units]	Absorption change, Released NBD-FA, 550 nm (HSL 25 μg) [arb. units]	Absorption change, Released NBD-FA, 550 nm (HSL 30 μg) [arb. units]	Absorption change, Released NBD-FA, 550 nm (HSL 40 μg) [arb. units]	Absorption change, Released NBD-FA, 550 nm (HSL 60 μg) [arb. units]	Absorption change, Released NBD-FA, 550 nm (HSL 80 μg) [arb. units]
O=C(CCCCCCCCCCCNc1ccc([N+](=O)[O-])c2nonc12)OCC(O)CO (racemic) [Compound 3]	1020 ± 250	–	–	–	–	–	–	–	–	–	–	–	–
O=C(CCCCCCCCCCCNc1ccc([N+](=O)[O-])c2nonc12)OCC(O)CO (stereo not shown) [Compound (3)]	–	17 ± 2	44 ± 5	103 ± 11	157 ± 21	215 ± 24	320 ± 29	432 ± 53	544 ± 61	616 ± 56	693 ± 67	733 ± 80	746 ± 98
